Literature values, collected in PMC4131438 (ACS chemical biology, 2014).

Experiments:
[1] = BIM BH3 aa 146-166 template, staple at R154/E158 i, i+4

BIM BH3 peptide (aa 146-166): unmodified BIM BH3 peptide, amino acids 146-166
α-helical content in solution [1]: 20%
binding to pro-apoptotic BAX (pro-apoptotic BAX; fluorescence polarization binding assays, aa 146-166 constructs): no detectable BAX interaction

BIM BH3 peptide (aa 145-164): unmodified BIM BH3 peptide composed of amino acids 145-164
binding to full-length BAX (pro-apoptotic BAX; aa 145-164 constructs): negligible binding
